{"source": "patent US9765101B2", "about": "“Organo-arsenoxide compounds and use thereof” (NewSouth Innovations Pty Limited, priority 2006, dated 2017)", "key": {"[1]": {"system": "MDCK2 cells (kidney epithelial)", "test": "MDCK2 cell proliferation assay (MTT, 72 h)", "assay_type": "cell-based, dog", "description": "(§1) BAE cells were from Cell Applications, San Diego, Calif. and BxPC-3, HT1080, LLC, PANC-1, MCF-7, HCT116 and K562 cells were from ATCC, Bethesda, Md. NB4 and MDCK2 cells were from Shane Supple (Kanematsu Laboratories, Royal Prince Alfred Hospital, Sydney, Australia) and P. Borst (The Netherlands Cancer Institute, Amsterdam, The Netherlands). BAE, HT1080, Panc-1, MCF-7, HCT116, MDCK2 and LLC cells were cultured in DMEM. NB4, K562 and BxPC-3 cells were cultured in RPMI medium. The cells were supplemented with 10% foetal calf serum (FBS), 2 mM L-glutamine, and 1 U·mL-1 penicillin/streptomycin. Cell culture plasticware was from Techno Plastic Products (Trasadingen, Switzerland). All other cell culture reagents were from Gibco (Gaithersburg, Md.).\n(§2) Adherent cells were allowed to adhere overnight."}, "[2]": {"system": "isolated rat liver mitochondria", "test": "Mitochondrial swelling assay (mitochondrial permeability transition)", "assay_type": "biochemical", "settings": "100 μM", "description": "Mitochondria were isolated from the livers of ˜250 g male Wistar rats using differential centrifugation as previously described (Dilda et al., 2005a; Don et al., 2003). The final mitochondrial pellet was resuspended in 3 mM HEPES-KOH, pH 7.0 buffer containing 213 mM mannitol, 71 mM sucrose and 10 mM sodium succinate at a concentration of 30 mg of protein per mL. Mitochondrial permeability transition induction was assessed spectrophotometrically by suspending the liver mitochondria at 0.5 mg of protein per mL at 25° C. in 3 mM HEPES-KOH, pH 7.0 buffer containing 75 mM mannitol, 250 mM sucrose, 10 mM sodium succinate, and 2 μM rotenone. Swelling was measured by monitoring the associated decrease in light scattering at 520 nm using a SpectraMax Plus microplate reader (Molecular Devices, Palo Alto, Calif.)."}, "[3]": {"system": "HCT1116 cells (colorectal carcinoma)", "test": "HCT116 cell proliferation assay (MTT, 72 h)", "assay_type": "cell-based", "settings": "HCT1116, human colorectal carcinoma; read-out: IC50 for proliferation arrest", "description": "as §1, §2"}, "[4]": {"system": "MDCKII cells over-expressing MRP2", "settings": "MD/MRP2; 96 h; relative to IC50 of non-transfected parental cells", "description": "(§3) Transfectants of the Madin-Darby canine kidney II (MDCKII) polarised epithelial cell line, over-expressing multidrug resistance-associated proteins (MRP) 1, 2 or 3, have been described (Evers et al., 2000; Kool et al., 1999), as have the MEF/MDR1 clone H4 over-expressing human MDR1 or BCRP (Dilda et al., 2005b). Cells were grown and maintained as adherent monolayers in DMEM containing 10% calf serum (Cosmic™, Hyclone, Tauranga, New Zealand), 100 μg·mL^−1 penicillin and 60 μg·mL^−1 streptomycin. Cytotoxicity assays were performed as described previously (Allen et al., 1999).\n(§4) Mammalian cells over-expressing MRP1, 2, 3 or 6, or MDR1 or BCRP were tested for resistance to (S)-Penicillamine-arsenoxide. MRP1, MRP2 or MRP3 was over-expressed in the canine kidney epithelial MDCKII cell line, while MRP6, MDR1 or BCRP was over-expressed in the murine embryo fibroblast MEF3.8 line. Cells were exposed to the indicated concentrations of (S)-Penicillamine-arsenoxide for 96 h and the number of viable cells measured and expressed relative to the number of untreated cells. Resistance factor is calculated relative to the (S)-Penicillamine arsenoxide IC50 for proliferation arrest of non-transfected parental cells."}, "[5]": {"system": "MEF3.8 cells over-expressing MDR1", "settings": "MEF/MDR1; 96 h; relative to IC50 of non-transfected parental cells", "description": "as §3, §4"}, "[6]": {"system": "MEF3.8 cells over-expressing BCRP", "settings": "MEF/BCRP; 96 h; relative to IC50 of non-transfected parental cells", "description": "as §3, §4"}, "[7]": {"system": "MEF3.8 cells over-expressing MRP6", "settings": "MEF/MRP6; 96 h; relative to IC50 of non-transfected parental cells", "description": "as §3, §4"}, "[8]": {"system": "MDCKII cells over-expressing MRP3", "settings": "MD/MRP3; 96 h; relative to IC50 of non-transfected parental cells", "description": "as §3, §4"}, "[9]": {"system": "MDCKII cells over-expressing MRP1", "settings": "MD/MRP1; 96 h; relative to IC50 of non-transfected parental cells", "description": "as §3, §4"}}}
{"smiles": "CC(C)(SCC(=O)Nc1ccc([As](O)O)cc1)[C@@H](N)C(=O)O", "note": "[(S)-Penicillamine-arsenoxide, 4-(N—(S-penicillaminylacetyl)amino)phenylarsinous acid]", "values": [{"measurement": "sensitivity of BAE cells relative to kidney epithelial cells", "setting": "[1]; BAE vs MDCK2", "value": 5.6, "unit": "fold"}, {"measurement": "IC50", "setting": "[1]; MDCK2, dog kidney epithelial, read-out: IC50 for proliferation arrest", "value": 2.4, "unit": "µM"}, {"measurement": "time for half-maximal swelling of isolated mitochondria, times faster compared to GSAO", "setting": "[2]", "value": "approximately 4 times"}, {"measurement": "IC50", "setting": "[3]", "value": 6, "unit": "µM"}, {"measurement": "Resistance Factor", "setting": "[4]", "value": 4.6}, {"measurement": "Resistance Factor", "setting": "[5]", "value": 1.2}, {"measurement": "Resistance Factor", "setting": "[6]", "value": 1.1}, {"measurement": "Resistance Factor", "setting": "[7]", "value": 1.3}, {"measurement": "Resistance Factor", "setting": "[8]", "value": 0.8}, {"measurement": "Resistance Factor", "setting": "[9]", "value": 3.7}]}
